molecular target: T1, hVR1 (Homo sapiens, UniProt Q8NER1); test: hVR1 FLIPR (Fluorometric Image Plate Reader) screening assay, IC50 determination; type: cell-based; settings: agonist capsaicin, inhibition of increase in intracellular calcium
T1 construct: expressed in transfected cells
Method: 1. hVR1 FLIPR (Fluorometric Image Plate Reader) screening assay
Transfected CHO cells, stably expessing hVR1 (15,000 cells/well) are seeded in 50 ul media in a black clear bottom 384 plate (Greiner) and grown in a humidified incubator (37° C., 2% CO2), 24-30 hours prior to experiment.
Subsequently, the media is removed from the cell plate by inversion and 2 μM Fluo-4 is added using a multidrop (Labsystems). Following the 40 minutes dye incubation in the dark at 37° C. and 2% CO2, the extracellular dye present is washed away using an EMBLA (Scatron), leaving the cells in 40 ul of assay buffer (1×HBSS, 10 mM D-Glucose, 1 mM CaCl2, 10 mM HEPES, 10×7.5% NaHCO3 and 2.5 mM Probenecid).
FLIPR Assay—IC50 Determination Protocol
For IC50 determinations the fluorescence is read using FLIPR filter 1 (em […]). A cellular baseline recording is taken for 30 seconds, followed by a 20 μl addition of 10, titrated half-log concentrations of the test compound, yielding cellular concentration ranging from 3 μM to 0.1 nM. Data is collected every 2 seconds for a further 5 minutes prior to the addition of a VR1 agonist solution: either 50 nM solution of capsaicin or MES (2-[N-morpholino]ethanesulfonic acid) buffer (pH 5.2), by the FLIPR pipettor. The FLIPR continues to collect data for a further 4 minutes. […] This consequently leading to a reduction in fluorescence signal and providing a reduced fluorescence reading, compared with no compound, buffer controls. Data is exported by the FLIPR program as a sum of fluorescence calculated under the curve upon the addition of capsaicin. […]
FLIPR (Fluorometric Image Plate Reader) screening assay with HEK T-REX hVR1. […]
For IC50 determinations the fluorescence is read using FLIPR filter 1 (em […]). […] This consequently leading to a reduction in fluorescence signal and providing a reduced fluorescence reading, compared with no compound, buffer controls. Data is exported by the FLIPR program as a sum of fluorescence calculated under the curie upon the addition of capsaicin. […]

T1 sequence (Q8NER1 whole entry): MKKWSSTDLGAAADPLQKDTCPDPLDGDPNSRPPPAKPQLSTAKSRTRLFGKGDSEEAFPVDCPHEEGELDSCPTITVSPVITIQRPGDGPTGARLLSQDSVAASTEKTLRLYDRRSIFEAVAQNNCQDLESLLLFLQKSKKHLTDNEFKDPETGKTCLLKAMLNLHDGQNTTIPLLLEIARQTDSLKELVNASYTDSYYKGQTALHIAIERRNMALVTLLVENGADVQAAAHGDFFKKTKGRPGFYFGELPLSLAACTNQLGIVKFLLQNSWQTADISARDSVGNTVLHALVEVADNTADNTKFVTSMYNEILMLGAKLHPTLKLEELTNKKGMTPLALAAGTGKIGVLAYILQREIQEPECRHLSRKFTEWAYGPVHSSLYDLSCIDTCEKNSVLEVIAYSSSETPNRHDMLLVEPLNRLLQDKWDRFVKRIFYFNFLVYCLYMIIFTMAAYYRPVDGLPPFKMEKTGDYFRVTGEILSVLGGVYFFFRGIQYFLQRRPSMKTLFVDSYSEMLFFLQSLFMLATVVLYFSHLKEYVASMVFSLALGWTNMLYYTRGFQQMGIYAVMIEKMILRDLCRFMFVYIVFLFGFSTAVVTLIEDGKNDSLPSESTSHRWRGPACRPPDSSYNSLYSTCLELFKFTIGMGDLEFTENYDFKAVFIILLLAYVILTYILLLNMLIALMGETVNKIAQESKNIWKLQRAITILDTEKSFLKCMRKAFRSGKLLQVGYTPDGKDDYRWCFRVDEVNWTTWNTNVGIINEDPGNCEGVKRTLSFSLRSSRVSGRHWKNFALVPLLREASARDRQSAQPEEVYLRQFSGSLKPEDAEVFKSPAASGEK

Compared with Cc1nc2cc(C(=O)Nc3ccc(C(C)(C)C)cc3)ccc2s1 [Example 1, N-4-tert-butylphenyl-2-methyl-1,3-benzothiazole-5-carboxamide], Cc1nc2cc(C(=O)NCc3ccc(C(F)(F)F)cc3)ccc2s1 [Example 7, 2-methyl-N-[4-trifluoromethylbenzyl]-1,3-benzothiazole-5 carboxamide] is 12-fold higher in IC50: 226 nM for the first, 2780 nM for the second.

Work on Cc1nc2cc(C(=O)NCc3cccc(C(F)(F)F)c3)ccc2s1 [Example 8, 2-methyl-N-[3-trifluoromethylbenzyl]-1,3-benzothiazole-5-carboxamide] yielded an IC50 of 1660 nM.

— US20080108676A1, “Benzothiazolecarboxamides” (New Benzothiazolecarboxamides, priority 2004, published 2008)
